Drawing on ChEMBL document CHEMBL2007661, “Compounds: GSK PKIS; Assays: UNC Frye lab” (2012), this text covers inhibition for 32 compounds.

SMILES strings stand for the structures. Where “and” joins values, the source holds several entries; their conditions need not be identical. Identical values can stand only once.

Experiment [1] deals with T1, Inhibitor of nuclear factor kappa-B kinase subunit beta (Homo sapiens) (UniProt O14920).
T1 sequence (whole entry): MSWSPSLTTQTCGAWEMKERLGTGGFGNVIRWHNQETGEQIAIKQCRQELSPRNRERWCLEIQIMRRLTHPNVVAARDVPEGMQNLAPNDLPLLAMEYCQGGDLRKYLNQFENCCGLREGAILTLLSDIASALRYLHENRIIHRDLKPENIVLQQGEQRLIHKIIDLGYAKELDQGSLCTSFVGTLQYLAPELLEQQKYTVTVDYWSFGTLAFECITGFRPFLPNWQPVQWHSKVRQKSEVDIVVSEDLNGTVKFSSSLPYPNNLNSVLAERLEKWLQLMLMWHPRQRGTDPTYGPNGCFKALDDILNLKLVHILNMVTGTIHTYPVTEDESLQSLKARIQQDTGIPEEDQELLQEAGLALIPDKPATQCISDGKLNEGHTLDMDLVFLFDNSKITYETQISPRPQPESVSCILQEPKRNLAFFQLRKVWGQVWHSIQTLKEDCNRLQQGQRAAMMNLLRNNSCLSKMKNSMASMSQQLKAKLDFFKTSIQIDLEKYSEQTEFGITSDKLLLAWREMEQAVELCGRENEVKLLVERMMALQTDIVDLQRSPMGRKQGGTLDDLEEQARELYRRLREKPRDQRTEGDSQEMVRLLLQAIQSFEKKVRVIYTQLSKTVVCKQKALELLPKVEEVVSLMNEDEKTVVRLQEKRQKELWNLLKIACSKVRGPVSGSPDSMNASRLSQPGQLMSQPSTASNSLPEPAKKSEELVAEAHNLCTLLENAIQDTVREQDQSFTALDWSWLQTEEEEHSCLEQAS
Conditions: at 1 µM.

Experiment [2] addresses T2, Tyrosine-protein kinase Mer (Homo sapiens) (UniProt Q12866).
T2 sequence (whole entry): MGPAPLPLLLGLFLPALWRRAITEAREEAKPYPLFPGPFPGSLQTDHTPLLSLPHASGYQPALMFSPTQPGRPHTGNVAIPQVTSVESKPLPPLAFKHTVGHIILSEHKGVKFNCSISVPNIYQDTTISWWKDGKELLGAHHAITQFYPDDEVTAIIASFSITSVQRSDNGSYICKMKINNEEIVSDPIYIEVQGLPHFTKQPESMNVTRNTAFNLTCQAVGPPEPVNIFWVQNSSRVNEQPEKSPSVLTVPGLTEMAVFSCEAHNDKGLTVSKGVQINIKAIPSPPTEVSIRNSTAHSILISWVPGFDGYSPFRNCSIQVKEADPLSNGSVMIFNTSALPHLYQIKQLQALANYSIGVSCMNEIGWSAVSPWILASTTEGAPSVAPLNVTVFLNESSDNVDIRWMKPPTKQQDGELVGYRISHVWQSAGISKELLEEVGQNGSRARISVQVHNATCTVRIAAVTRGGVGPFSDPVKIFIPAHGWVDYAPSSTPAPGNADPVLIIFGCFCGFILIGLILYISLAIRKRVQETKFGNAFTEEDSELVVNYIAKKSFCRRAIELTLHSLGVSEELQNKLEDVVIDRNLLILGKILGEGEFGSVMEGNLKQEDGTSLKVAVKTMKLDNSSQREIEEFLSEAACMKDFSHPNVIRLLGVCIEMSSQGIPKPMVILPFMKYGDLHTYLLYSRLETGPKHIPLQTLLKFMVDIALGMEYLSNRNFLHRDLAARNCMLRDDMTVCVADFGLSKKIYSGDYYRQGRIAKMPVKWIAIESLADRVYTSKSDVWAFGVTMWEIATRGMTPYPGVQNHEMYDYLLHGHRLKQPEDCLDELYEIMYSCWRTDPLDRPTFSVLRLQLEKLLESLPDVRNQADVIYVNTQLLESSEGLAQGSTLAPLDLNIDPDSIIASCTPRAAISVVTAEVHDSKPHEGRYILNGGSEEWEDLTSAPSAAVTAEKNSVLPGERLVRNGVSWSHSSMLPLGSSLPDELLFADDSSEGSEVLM
Particulars: at 10 µM.

Experiment [3] addresses T3, Serine/threonine-protein kinase TBK1 (Homo sapiens) (UniProt Q9UHD2).
T3 sequence (whole entry): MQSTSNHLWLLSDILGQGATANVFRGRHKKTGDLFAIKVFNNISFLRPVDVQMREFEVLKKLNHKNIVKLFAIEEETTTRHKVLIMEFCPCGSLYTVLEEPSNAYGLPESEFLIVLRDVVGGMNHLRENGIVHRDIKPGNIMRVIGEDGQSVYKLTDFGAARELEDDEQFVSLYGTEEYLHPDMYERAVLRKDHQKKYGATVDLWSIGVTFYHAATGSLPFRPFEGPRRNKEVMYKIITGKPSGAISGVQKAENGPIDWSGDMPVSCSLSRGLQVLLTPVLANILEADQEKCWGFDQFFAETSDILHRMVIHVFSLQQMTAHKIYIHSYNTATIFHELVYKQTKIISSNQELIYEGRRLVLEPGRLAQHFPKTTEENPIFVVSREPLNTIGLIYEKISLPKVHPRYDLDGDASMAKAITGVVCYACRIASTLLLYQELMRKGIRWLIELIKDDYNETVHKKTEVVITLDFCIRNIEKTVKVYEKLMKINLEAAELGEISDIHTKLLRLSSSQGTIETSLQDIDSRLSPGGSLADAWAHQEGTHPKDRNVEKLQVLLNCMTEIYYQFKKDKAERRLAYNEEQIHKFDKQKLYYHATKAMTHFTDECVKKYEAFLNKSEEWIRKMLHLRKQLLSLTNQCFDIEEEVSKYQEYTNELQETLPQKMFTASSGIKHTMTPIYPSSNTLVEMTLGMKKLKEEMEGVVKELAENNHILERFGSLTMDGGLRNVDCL
Particulars: at 1 µM.

By inhibition is commonly meant the drop in the measured response relative to a control, in per cent. Consider `c1ccc(Nc2ncc(-c3ccccc3)o2)cc1`, for which the inhibition in experiment [1] was -4%; in experiment [2], 0%; in experiment [3], 2% and 1%.
For the compound `NCc1ccc(-n2c(-c3nonc3N)nc3cnccc32)cc1`, the inhibition is -6% and -2% in experiment [1]; -3% in experiment [2]; 6% and 5% in experiment [3].
For the compound `CCCN1CCC(c2ccc(Nc3nc(Nc4cc(F)ccc4C(N)=O)c4cc[nH]c4n3)c(OC)c2)CC1`, the inhibition in experiment [1] is -2% and 4%; in experiment [2], 5%; in experiment [3], 13% and 7%.
On to `O=C(Nc1ccc(Oc2ccc3[nH]c(NC(=O)c4ccccc4)nc3c2)cc1)Nc1cc(C(F)(F)F)ccc1F`, for which the inhibition is -2% and 2% in experiment [1]; 78% in experiment [2]; 6% and 3% in experiment [3].
Take `NS(=O)(=O)c1ccc(N/N=C2\C(=O)Nc3ccc(C(=O)NCc4ccncc4)cc32)cc1`: the inhibition was -1% and 0% in experiment [1]; -8% in experiment [2]; 59% and 60% in experiment [3].
`CN(C)CCCNc1nccc(-c2c(-c3ccc(F)cc3)nn3cc(C(F)(F)F)ccc23)n1`: the inhibition is 2% and 0% in experiment [1]; 0% in experiment [2]; -1% and 2% in experiment [3].
For the compound `CCc1ccc(Oc2nccc(-c3c(-c4ccc(F)cc4)ncn3C3CCNCC3)n2)cc1`, the inhibition in experiment [1] is -7% and -6%; in experiment [2], -6%; in experiment [3], -6% and -3%.
`CNC(=O)c1cncc(/C=C/c2ccccc2C)c1`: the inhibition is -1% and -3% in experiment [1]; -5% in experiment [2]; 2% and 5% in experiment [3].
With `NS(=O)(=O)c1ccc(Nc2cc(-c3ccc(O)c(F)c3)n[nH]2)cc1`, the inhibition is -2% and -1% in experiment [1]; -1% in experiment [2]; 16% and 17% in experiment [3].
Regarding `COC(=O)Nc1nc2cc(Oc3ccc(NC(=O)Nc4cccc(C(=O)O)c4)cc3)ccc2[nH]1`, the inhibition in experiment [1] is -3% and 3%; in experiment [2], 94%; in experiment [3], -5% and -2%.
For `NS(=O)(=O)c1ccc(Nc2ncc(-c3ccccc3)o2)cc1`, the inhibition is -2% and 2% in experiment [1]; 2% in experiment [2]; 10% and 5% in experiment [3].
As to `CCn1c(-c2nonc2N)nc2ccncc21`, the inhibition was -4% and -5% in experiment [1]; 32% in experiment [2]; -4% and -5% in experiment [3].
For `CC1=C(C(=O)Nc2ccc3[nH]ncc3c2)C(c2ccc(Cl)c(Cl)c2)CC(=O)N1` (stereo unspecified), the inhibition is 2% in experiment [1]; 3% in experiment [2]; 3% and 2% in experiment [3].
Regarding `O=C(Nc1ccc(Oc2ccc3[nH]c(NC(=O)c4ccco4)nc3c2)cc1)Nc1cc(C(F)(F)F)ccc1F`, the inhibition in experiment [1] was 0% and 1%; in experiment [2], 27%; in experiment [3], 0% and 2%.
Turning to `CCCN(CCS(C)(=O)=O)Cc1ccc(-c2ccc3ncnc(Nc4ccc(OCc5cccc(F)c5)c(Cl)c4)c3c2)o1`, the inhibition was -1% and -5% in experiment [1]; -3% in experiment [2]; 7% and 10% in experiment [3].
Turning to `CCn1c(-c2nonc2N)nc2cnc(Oc3cccc(NC(=O)c4ccc(N(C)C)cc4)c3)cc21`, the inhibition is -1% and -2% in experiment [1]; -6% in experiment [2]; 4% and 1% in experiment [3].
With `COc1ccc2[nH]c3c4[nH]c5ccc(OC)cc5c4c4c(c3c2c1)C(=O)NC4=O`, the inhibition in experiment [1] is -1% and -5%; in experiment [2] it was 5%; in experiment [3], 55% and 56%.
`O=C1NC(=O)C(c2ccc(Cl)cc2)=C1Nc1ccc(Cl)c(C(=O)O)c1`: the inhibition in experiment [1] was -5% and -2%; in experiment [2], 62%; in experiment [3] it was -2% and -4%.
With `COc1cccc(-n2ncc3c(N/N=C/c4cccc(F)c4)ncnc32)c1`, the inhibition in experiment [1] was -7% and -5%; in experiment [2] it was -3%; in experiment [3], 6% and 5%.
For `Nc1nc(-c2ccccn2)c(-c2ccc3ncccc3n2)s1`, the inhibition is -4% and -7% in experiment [1]; -5% in experiment [2]; 3% and 0% in experiment [3].
Consider `CC(C)COC(=O)c1ccc2c(c1)/C(=C/Nc1ccc(S(N)(=O)=O)cc1)C(=O)N2`, for which the inhibition is 0% and -1% in experiment [1]; 0% in experiment [2]; 93% and 98% in experiment [3].
For the compound `Cc1cc(O)cc(C)c1/C=C/c1cncc(C(=O)N(C)C)c1`, the inhibition in experiment [1] is 3% and 2%; in experiment [2], -4%; in experiment [3], 1% and 6%.
Turning to `O=C1NC(=O)C(N2CCc3ccccc32)=C1c1ccc(Cl)cc1`, the inhibition in experiment [1] was 3% and 2%; in experiment [2], -6%; in experiment [3], 1%.
Consider `Cc1nnc(-c2ccc(C)c(-c3ccc(C(=O)Nc4cccc(C#N)c4)cc3)c2)o1`, for which the inhibition was 0% and -2% in experiment [1]; 7% in experiment [2]; -2% in experiment [3].
With `COc1cc(Nc2ncc(-c3ccccc3)o2)cc(OC)c1OC`, the inhibition was 15% and 0% in experiment [1]; 68% in experiment [2]; 35% and 27% in experiment [3].
Turning to `COc1cc2ncn(-c3cc(OCc4ccccc4C(F)(F)F)c(C(=O)N(C)C)s3)c2cc1OC`, the inhibition was -3% and -1% in experiment [1]; -10% in experiment [2]; -1% and 0% in experiment [3].
For the compound `CN1CCC(n2cnc(-c3ccc(F)cc3)c2-c2ccnc(Nc3ccccc3)n2)CC1`, the inhibition in experiment [1] was -3% and 2%; in experiment [2], -1%; in experiment [3], 0% and -2%.
Consider `CCn1c(-c2nonc2N)nc2c(N3CCCC3)nccc21`, for which the inhibition in experiment [1] was -6% and -5%; in experiment [2], -3%; in experiment [3], -8% and -4%.
For `NC(=O)c1ccc(-c2nc(-c3ccccn3)c(-c3ccc4c(c3)OCO4)[nH]2)cc1`, the inhibition in experiment [1] is 5% and 2%; in experiment [2], 1%; in experiment [3] it was 0% and 5%.
`NS(=O)(=O)c1ccc(N/N=C2\C(=O)Nc3cccc(CCc4ccncc4)c32)cc1`: the inhibition is -7% in experiment [1]; -5% in experiment [2]; 29% and 25% in experiment [3].
With `O=C(NCC1CC1)c1ccc(-c2cccc(C(=O)NC3CC3)c2)cc1`, the inhibition in experiment [1] was 1% and 4%; in experiment [2], 0%; in experiment [3], 2% and 1%.
As to `COC(=O)Nc1nc2cc(Oc3cccc(NC(=O)Nc4cc(C(F)(F)F)ccc4F)c3)ccc2[nH]1`, the inhibition is 0% and 5% in experiment [1]; -10% in experiment [2]; -2% in experiment [3].
